In US8354422B2, “Pyrimidine inhibitors of kinase activity” (Abbott Laboratories Inc., priority 2009, dated 2013):

Biological target: T1, C-terminal GST-tagged, recombinant, human IGF-1R, amino acids 954-1367 (Homo sapiens, UniProt P08069)
T1 construct: human IGF-1R, amino acids 954-1367 expressed by baculovirus in Sf21 cells; GST (C); purchased Cell Signaling Technology; host or cells: baculovirus in Sf21 cells
Test: IGF-1R kinase activity, homogenous time-resolved fluorescence (HTRF) in vitro kinase assay
Format: biochemical
Conditions: IGF-1R kinase HTRF assay, ATP 50 μM, biotinylated peptide substrate 0.5 μM, 60 minutes at room temperature
Experimental: IGF-1R kinase activity was assayed by a homogenous time-resolved fluorescence (HTRF) in vitro kinase assay (Mathis, G., HTRF(R) Technology. J Biomol Screen, 1999. 4(6): p. 309-314). Specifically, 10 μL C-terminal GST-tagged, recombinant, human IGF-1R, amino acids 954-1367 expressed by baculovirus in Sf21 cells (Cell Singaling Technology) was mixed with 10 μL inhibitor (various concentrations, 2% final DMSO) and 10 μL of ATP (50 μM final concentration) in reaction buffer (50 mM HEPES, pH […], 2 mM MnCl2, 0.1% BSA and 1 mM DTT, 40 μL final volume). The reaction was initiated by addition of 10 μL of biotinylated peptide substrate (Biotin-Ahx-[…], 0.5 μM final concentration) in a black 384-well plate (Packard). After 60 minutes incubation at room temperature, the reaction was quenched by addition of 60 μL stop/revelation buffer to give 30 mM EDTA, 1 μg/mL streptavidin-APC (Prozyme), 50 ng/mL anti-phosphotyrosine mAb PT66-K Europium Cryptate, 30 mM HEPES, pH 7.5, 120 mM KF, 0.005% Tween-20, 0.05% BSA). The quenched reaction was allowed to stand at room temperature for 1 hour and then read in a time-resolved fluorescence detector (Envision, Perkin Elmer) at 615 nm and 665 nm simultaneously. The ratio between the signal of 615 nm and 665 nm was used in the calculation of the IC50.

T1 sequence (P08069 954-1367): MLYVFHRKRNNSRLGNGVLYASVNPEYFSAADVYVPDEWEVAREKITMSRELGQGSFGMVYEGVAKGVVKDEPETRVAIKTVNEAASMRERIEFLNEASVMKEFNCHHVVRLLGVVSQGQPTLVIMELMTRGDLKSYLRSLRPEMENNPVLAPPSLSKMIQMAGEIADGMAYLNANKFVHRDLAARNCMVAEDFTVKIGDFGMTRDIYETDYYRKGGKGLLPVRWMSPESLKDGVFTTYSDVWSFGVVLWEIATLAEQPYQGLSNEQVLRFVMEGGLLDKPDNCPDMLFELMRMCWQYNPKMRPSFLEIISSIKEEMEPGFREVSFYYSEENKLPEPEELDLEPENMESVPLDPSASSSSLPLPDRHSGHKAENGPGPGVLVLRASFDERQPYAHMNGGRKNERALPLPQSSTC

| SMILES | IC50 |
| --- | --- |
| COc1ccc(N2CCOCC2)cc1Nc1nccc(-c2c(-c3ccc(OCc4ccccc4)c(OC)c3)nc3ccccn23)n1 [Example 52, 4-{2-[4-(benzyloxy)-3-methoxyphenyl]imidazo[1,2-a]pyridin-3-yl}-N-(2-methoxy-5-morpholin-4-ylphenyl)pyrimidin-2-amine] | 0.101 to 0.5 µM |
| COc1cc(NCC(=O)O)ccc1Nc1nccc(-c2c(-c3ccc(OCc4ccccc4)c(OC)c3)nc3ccccn23)n1 [Example 53, N-{4-[(4-{2-[4-(benzyloxy)-3-methoxyphenyl]imidazo[1,2-a]pyridin-3-yl}pyrimidin-2-yl)amino]-3-methoxyphenyl}glycine] | 0.101 to 0.5 µM |
| COc1cc(-c2nc3ccccn3c2-c2ccnc(Nc3cnn(CCN4CCCCC4)c3)n2)ccc1OCc1ccccc1 [Example 54, 4-{2-[4-(benzyloxy)-3-methoxyphenyl]imidazo[1,2-a]pyridin-3-yl}-N-[1-(2-piperidin-1-ylethyl)-1H-pyrazol-4-yl]pyrimidin-2-amine] | 0.101 to 0.5 µM |
| COc1cc(-c2nc3ccccn3c2-c2ccnc(Nc3cnn(CCN4CCOCC4)c3)n2)ccc1OCc1ccccc1 [Example 55, 4-{2-[4-(benzyloxy)-3-methoxyphenyl]imidazo[1,2-a]pyridin-3-yl}-N-[1-(2-morpholin-4-ylethyl)-1H-pyrazol-4-yl]pyrimidin-2-amine] | 0.025 to 0.1 µM |
| COc1cc(N2CCC(N3CCSCC3)CC2)ccc1Nc1nccc(-c2c(-c3ccc(OCc4ccccc4)c(OC)c3)nc3ccccn23)n1 [Example 56, 4-{2-[4-(benzyloxy)-3-methoxyphenyl]imidazo[1,2-a]pyridin-3-yl}-N-[2-methoxy-4-(4-thiomorpholin-4-ylpiperidin-1-yl)phenyl]pyrimidin-2-amine] | 0.101 to 0.5 µM |
| COc1cc(C2CCNCC2)ccc1Nc1nccc(-c2c(-c3ccc(OCc4ccccc4)c(OC)c3)nc3ccccn23)n1 [Example 57, 4-{2-[4-(benzyloxy)-3-methoxyphenyl]imidazo[1,2-a]pyridin-3-yl}-N-(2-methoxy-4-piperidin-4-ylphenyl)pyrimidin-2-amine] | < 0.025 µM |
| FC(F)(F)Oc1cc(-c2nc3ccccn3c2-c2ccnc(Nc3cccc(CCN4CCCC4)c3)n2)ccc1OCc1ccccc1 [Example 58, 4-{2-[4-(benzyloxy)-3-(trifluoromethoxy)phenyl]imidazo[1,2-a]pyridin-3-yl}-N-[3-(2-pyrrolidin-1-ylethyl)phenyl]pyrimidin-2-amine] | > 1 µM |
| COc1ccc(CCN(C)C)cc1Nc1nccc(-c2c(-c3ccc(OCc4ccccc4)c(OC)c3)nc3ccccn23)n1 [Example 59, 4-{2-[4-(benzyloxy)-3-methoxyphenyl]imidazo[1,2-a]pyridin-3-yl}-N-{5-[2-(dimethylamino)ethyl]-2-methoxyphenyl}pyrimidin-2-amine] | 0.025 to 0.1 µM |
| COc1cc(-c2nc3ccccn3c2-c2ccnc(Nc3ccc4c(c3)CN(C)CC4)n2)ccc1OCc1ccccc1 [Example 60, N-(4-{2-[4-(benzyloxy)-3-methoxyphenyl]imidazo[1,2-a]pyridin-3-yl}pyrimidin-2-yl)-2-methyl-1,2,3,4-tetrahydroisoquinolin-7-amine] | 0.025 to 0.1 µM |
| COc1cc(-c2nc3ccccn3c2-c2ccnc(Nc3ccc4c(c3)CCNC4)n2)ccc1OCc1ccccc1 [Example 61, N-(4-{2-[4-(benzyloxy)-3-methoxyphenyl]imidazo[1,2-a]pyridin-3-yl}pyrimidin-2-yl)-1,2,3,4-tetrahydroisoquinolin-6-amine] | < 0.025 µM |
| COc1cc(-c2nc3ccccn3c2-c2ccnc(Nc3ccc4c(c3)CNCC4)n2)ccc1OCc1ccccc1 [Example 62, N-(4-{2-[4-(benzyloxy)-3-methoxyphenyl]imidazo[1,2-a]pyridin-3-yl}pyrimidin-2-yl)-1,2,3,4-tetrahydroisoquinolin-7-amine] | 0.025 to 0.1 µM |
| COc1cc(N2CCS(=O)(=O)CC2)ccc1Nc1nccc(-c2c(-c3ccc(OCc4ccccc4)c(OC)c3)nc3ccccn23)n1 [Example 63, 4-{2-[4-(benzyloxy)-3-methoxyphenyl]imidazo[1,2-a]pyridin-3-yl}-N-[4-(1,1-dioxidothiomorpholin-4-yl)-2-methoxyphenyl]pyrimidin-2-amine] | 0.025 to 0.1 µM |
| COc1ccc(CN(C)CCO)cc1Nc1nccc(-c2c(-c3ccc(OCc4ccccc4)c(OC)c3)nc3ccccn23)n1 [Example 64, 2-[{3-[(4-{2-[4-(benzyloxy)-3-methoxyphenyl]imidazo[1,2-a]pyridin-3-yl}pyrimidin-2-yl)amino]-4-methoxybenzyl}(methyl)amino]ethanol] | 0.101 to 0.5 µM |
| COc1cc(-c2nc3ccccn3c2-c2ccnc(Nc3ccc(NC(=O)CN(C)C)cc3)n2)ccc1OCc1ccccc1 [Example 65, N^1-{4-[(4-{2-[4-(benzyloxy)-3-methoxyphenyl]imidazo[1,2-a]pyridin-3-yl}pyrimidin-2-yl)amino]phenyl}-N^2,N^2-dimethylglycinamide] | 0.025 to 0.1 µM |
| COc1cc(-c2nc3ccccn3c2-c2ccnc(Nc3cccc(NC(=O)CN(C)C)c3)n2)ccc1OCc1ccccc1 [Example 66, N^1-{3-[(4-{2-[4-(benzyloxy)-3-methoxyphenyl]imidazo[1,2-a]pyridin-3-yl}pyrimidin-2-yl)amino]phenyl}-N^2,N^2-dimethylglycinamide] | 0.025 to 0.1 µM |
| CN(C)CC(=O)Nc1cccc(Nc2nccc(-c3c(-c4ccc(OCc5ccccc5)cc4)nc4ccccn34)n2)c1 [Example 67, N^1-{3-[(4-{2-[4-(benzyloxy)phenyl]imidazo[1,2-a]pyridin-3-yl}pyrimidin-2-yl)amino]phenyl}-N^2,N^2-dimethylglycinamide] | 0.101 to 0.5 µM |
| Cc1cc(-c2nc3ccccn3c2-c2ccnc(Nc3cccc(CCN(C)C)c3)n2)ccc1OCc1ccccc1 [Example 68, 4-{2-[4-(benzyloxy)-3-methylphenyl]imidazo[1,2-a]pyridin-3-yl}-N-{3-[2-(dimethylamino)ethyl]phenyl}pyrimidin-2-amine] | 0.501 to 1 µM |
| COc1cc(-c2nc3ccccn3c2-c2ccnc(Nc3ccc(CCN(C)C)cc3)n2)ccc1OCc1ccccc1 [Example 69, 4-{2-[4-(benzyloxy)-3-methoxyphenyl]imidazo[1,2-a]pyridin-3-yl}-N-{4-[2-(dimethylamino)ethyl]phenyl}pyrimidin-2-amine] | < 0.025 µM |
| COc1cc(-c2nc3ccccn3c2-c2ccnc(Nc3cccc(CN4CCC(O)C4)c3)n2)ccc1OCc1ccccc1 (centres unmarked) [Example 70, 1-{3-[(4-{2-[4-(benzyloxy)-3-methoxyphenyl]imidazo[1,2-a]pyridin-3-yl}pyrimidin-2-yl)amino]benzyl}pyrrolidin-3-ol] | 0.025 to 0.1 µM |
| COc1ccc(NC(=O)CN(C)C)cc1Nc1nccc(-c2c(-c3ccc(OCc4ccccc4)c(OC)c3)nc3ccccn23)n1 [Example 71, N^1-{3-[(4-{2-[4-(benzyloxy)-3-methoxyphenyl]imidazo[1,2-a]pyridin-3-yl}pyrimidin-2-yl)amino]-4-methoxyphenyl}-N^2,N^2-dimethylglycinamide] | < 0.025 µM |
| COc1ccc(NC(=O)CN(C)C)cc1Nc1nccc(-c2c(-c3ccc(OCc4ccccc4)cc3)nc3ccccn23)n1 [Example 72, N^1-{3-[(4-{2-[4-(benzyloxy)phenyl]imidazo[1,2-a]pyridin-3-yl}pyrimidin-2-yl)amino]-4-methoxyphenyl}-N^2,N^2-dimethylglycinamide] | < 0.025 µM |
| COc1ccc(N2CCSCC2)cc1Nc1nccc(-c2c(-c3ccc(OCc4ccccc4)c(OC)c3)nc3ccccn23)n1 [Example 73, 4-{2-[4-(benzyloxy)-3-methoxyphenyl]imidazo[1,2-a]pyridin-3-yl}-N-(2-methoxy-5-thiomorpholin-4-ylphenyl)pyrimidin-2-amine] | 0.101 to 0.5 µM |
| COc1ccc(N2CCS(=O)(=O)CC2)cc1Nc1nccc(-c2c(-c3ccc(OCc4ccccc4)c(OC)c3)nc3ccccn23)n1 [Example 74, 4-{2-[4-(benzyloxy)-3-methoxyphenyl]imidazo[1,2-a]pyridin-3-yl}-N-[5-(1,1-dioxidothiomorpholin-4-yl)-2-methoxyphenyl]pyrimidin-2-amine] | < 0.025 µM |
| CN(C)CCc1cccc(Nc2nccc(-c3c(-c4ccc(OCc5ccccc5)cc4)nn4ccccc34)n2)c1 [Example 75, 4-{2-[4-(benzyloxy)phenyl]pyrazolo[1,5-a]pyridin-3-yl}-N-{3-[2-(dimethylamino)ethyl]phenyl}pyrimidin-2-amine] | < 0.025 µM |
| CN(C)CCc1cccc(Nc2nccc(-c3c(-c4ccc(OCc5ccccc5)cc4)nn4ncccc34)n2)c1 [Example 76, 4-{2-[4-(benzyloxy)phenyl]pyrazolo[1,5-b]pyridazin-3-yl}-N-{3-[2-(dimethylamino)ethyl]phenyl}pyrimidin-2-amine] | < 0.025 µM |
| CN(C)CCc1cccc(Nc2nccc(-c3c(-c4ccc(OCc5ccccc5)cc4)nn4cc(F)ccc34)n2)c1 [Example 77, 4-{2-[4-(benzyloxy)phenyl]-6-fluoropyrazolo[1,5-a]pyridin-3-yl}-N-{3-[2-(dimethylamino)ethyl]phenyl}pyrimidin-2-amine] | > 1 µM |
